Experimental data reported in US5373040A, “Amorphous solid modification of 2,2',2"-nitrilo[triethyl-tris-(3,3',5,5'-tetra-tert-butyl-1,1'-biphenyl- 2,2'-diyl)phosphite]” (Ciba-Geigy Corporation, priority 1993, dated 1994).

Tests used:
[1] = Process stabilization of polypropylene: yellowness index of plaques (ASTM D1925); conditions: in the presence of a representative phenolic antioxidant; versus prior art compound of U.S. Pat. No. 4,318,845
Text: The test additives are incorporated into the polypropylene by dry blending or, when the additive is a liquid, using a minimum amount of methylene chloride solvent. The solvent is then removed by evaporation under reduced pressure.

[2] = Stabilization of polycarbonate: yellowness index; conditions: 0.08 weight percent plus 0.3 weight percent TINUVIN 329; versus UV absorber alone
Method: Additive free bisphenol A polycarbonate (LEXAN® 141-111N, General Electric) is dried and blended with 0.3 weight percent of a benzotriazole UV absorber TINUVIN® 329, Ciba-Geigy) and 0.08 weight percent of instant compound of Example 1. The mixture is extruded and pelletized at 550° F. (288° C.) on a 1" (2.54 cm) single screw extruder. Injection molded plaques (2"×2"×125 mil; 5.08 cm×5.08 cm×3.175 mm) are prepared in a BOY 30M injection molder at 560° F. (293° C.) with a mold temperature of 150° C. The resulting plaques are measured for yellowness index (YI) using ASTM D 1925-70.

[3] = Stabilization of poly(butylene terephthalate): yellowness index; conditions: 0.3% by weight; versus control unstabilized PBT
Method: Poly(butylene terephthalate), PBT (RYNITE® 9160, DuPont) is tumble blended with 0.3% by weight of the compound of instant Example 1. The polymer is then extruded and pelletized at 260° C. A portion of the collected pellets are reextruded under the same conditions for a second pass. The remainder from the first extrusion is injection molded into 2"×2"×125 mil (5.08 cm×5.08 cm×3.175 mm) plaques at 540° F. (282° C.) with a 100° C. mold temperature in a BOY 30M molder. Intrinsic viscosities of the second pass extrudate and the injection molded plaques are determined.
The plaques are measured for yellowness index (color) using ASTM D 1925-70.

[4] = Stabilization of ABS: yellowness index; conditions: 0.25 g per 100 g of ABS; air oven at 180° C. for 45 minutes; versus unstabilized ABS resin
Method: A solution of 0.25 g of the instant compound of Example 1 in 40 ml of hexane/methanol is added to a rapidly stirred suspension of 100 g of ABS (acrylonitrile/butadiene/styrene terpolymer) in 600 g of water. The suspension is filtered and dried under vacuum at 40° C. for 40 hours. To the dried powder is added 2% by weight of titanium dioxide and 1% by weight of N,N'-ethylenebisstearamide on a two roll mill at 180° C. over four minutes. Compression molded plaques (0.8 mm) are prepared at 175° C. and placed in an air oven at 180° C. for 45 minutes. The color of said plaques are determined as yellowness index values using ASTM D1925-70.

[5] = Stabilization of polyol: discoloration or scorch of foam; conditions: 1000 ppm plus BHT 2000 ppm and NAUGARD 445 2000 ppm; versus control stabilizer package
Method: A premix of 10 g of water, 0.25 g of triethylenetetramine, 2 g of L-5740 (silicone surfactant, Union Carbide) and 20 g of ANTIBLAZE® AB-100 (chlorinated aromatic flame retardant, Albright & Wilson) is added to 200 g of 3000 molecular weight polyether polyol containing the stabilizer package listed below*. The mixture is stirred for five minutes with a high speed Lightning Mixer. Then 0.4 g of stannous octoate is added and the mixture is stirred for 5 seconds. Finally, 125 g of toluene diisocyanate ([…]) is added. The mixture is stirred for 7 seconds at high speed mixing and is then poured into a 10"×10"×5" (25.4 cm×25.4 cm×12.7 cm) cardboard box. The foam is allowed to rise completely. After standing 5 minutes, the box is removed and the sample cured in a microwave over for five minutes at 50% power. The foam is then immediately air over cured at 125° C. for three minutes. The foams are then cut in half for visual assessment of discoloration or scorch.
Control is 2,6-di-tert-butyl-4-methylphenol (BHT) 2000 ppm; and NAUGARD® 445 (diphenylamine antioxidant, Uniroyal) 2000 ppm.
Instant package is the above plus 1000 ppm of the compound of Example 1.

[6] = Solubility in LLDPE film by diffusion-in, X-ray fluorescence; type: physicochemical
Method: Experiments are carried out to determine the solubility of the instant compound into linear low density polyethylene (LLDPE) films at 20° C., 40° C. and 60° C. by diffusion-in of a relatively homogeneous particle size (<70 microns) of the test sample suspended in silicon oil.
Each sample is carefully ground with a mortar and pestle and the particle size below 70 microns is separated by sieving with a 200 mesh screen. The powder is then suspended in silicon oil (polydimethylsiloxane, L-45, Union Carbide Chemicals) at a concentration of approximately 38% (wt/wt). A few drops of this suspension is placed on a 10 mil (0.254 mm) thick, 2"×2" (5.08 cm×5.08 cm) compression molded film and a second film of the same dimension is placed on top. The films are gently pressed together so that the suspension forms a thin liquid layer between the polymer films. Excess suspension is removed and the procedure is repeated till a stack of eight films (six films for evaluation) are prepared. The stack is then placed between two 2.5"×2.5" (6.35 cm×6.35 cm) ceramic tiles and wrapped in aluminum foil and held together with a G-clamp. Each stack is aged at 20° C., 40° C. and 60° C. under a nitrogen atmosphere. At specified intervals, a single film is removed from the stack and the excess suspension is washed from the film with hexane. The film is then analyzed by X-ray fluorescence for total phosphorus content. LLDPE containing 0, 1000 ppm and 2000 ppm of the test compound are used as standard controls for this X-ray fluorescence method.

In the case of `CC(C)(C)c1cc(C(C)(C)C)c2op(OCCN(CCOp3oc4c(C(C)(C)C)cc(C(C)(C)C)cc4c4cc(C(C)(C)C)cc(C(C)(C)C)c4o3)CCOp3oc4c(C(C)(C)C)cc(C(C)(C)C)cc4c4cc(C(C)(C)C)cc(C(C)(C)C)c4o3)oc3c(C(C)(C)C)cc(C(C)(C)C)cc3c2c1` [Example 1, 2,2',2"-nitrilo[triethyl-tris-(3,3',5,5'-tetra-tert-butyl-1,1'-biphenyl-2,2'-diyl)phosphite]], the “stabilizing polypropylene against discoloration (change in yellowness index)” value [1] is reported as “equal or more effective”, the “yellowness index (YI)” value [2] is reported as “lower YI values” and the “yellowness index (color)” value [3] is reported as “lower YI values (less discoloration)”. The yellowness index [4] was “lower yellowness index values (less discoloration)”, the “discoloration of foam (visual inspection)” value [5] was “less discolored” and the scorch protection [5] was “better scorch protection”. The “Solubility of Compound in LLDPE at 20° C.” value (“Solubility … at 20° C.” for short) ([6]; interval 15 (time unit not given)) was 7200 ppm, the “Solubility … at 20° C.” value ([6]; interval 28 (time unit not given)) was 5100 ppm and the “Solubility … at 20° C.” value ([6]; interval 35 (time unit not given)) was 3800 ppm. For the same compound, the “Solubility … at 20° C.” value ([6]; interval 44 (time unit not given)) was 4700 ppm, the “Solubility of Compound in LLDPE at 40° C.” value (“Solubility … at 40° C.” for short) ([6]; interval 10 (time unit not given)) was 2500 ppm and the “Solubility … at 40° C.” value ([6]; interval 17 (time unit not given)) was 2100 ppm. For the same compound, the “Solubility … at 40° C.” value ([6]; interval 25 (time unit not given)) was 2400 ppm, the “Solubility … at 40° C.” value ([6]; interval 34 (time unit not given)) was 1700 ppm and the “Solubility … at 40° C.” value ([6]; interval 40 (time unit not given)) was 1900 ppm. For the same compound, the “Solubility … at 40° C.” value ([6]; interval 47 (time unit not given)) was 2200 ppm, the “Solubility … at 20° C.” value ([6]; third section, interval 6 (time unit not given)) was 3400 ppm and the “Solubility … at 20° C.” value ([6]; third section, interval 14 (time unit not given)) was 4000 ppm. For the same compound, the “Solubility … at 20° C.” value ([6]; third section, interval 22 (time unit not given)) was 4500 ppm, the “Solubility … at 20° C.” value ([6]; third section, interval 28 (time unit not given)) was 3800 ppm and the “Solubility … at 20° C.” value ([6]; third section, interval 37 (time unit not given)) was 4100 ppm. The “solubility in LLDPE” value ([6]; versus prior art compound of Example 4 of U.S. Pat. No. 4,318,845) was “far more soluble”.
